ChEMBL document CHEMBL5120777, “Incorporating Selenium into Heterocycles and Natural Products─From Chemical Properties to Pharmacological Activities” (J Med Chem, 2022)

Experiments:
Assay type in all cases: functional, cell-based
[1] = system: PC-3; assay: Antiproliferative activity against human PC-3 cells assessed as inhibition of cell growth incubated for 72 hrs by MTT assay; details: PC-3, 72 h
[2] = system: T47D; assay: Antiproliferative activity against human T47D cells assessed as inhibition of cell growth incubated for 72 hrs by MTT assay
[3] = system: SK-OV-3; assay: Antiproliferative activity against human SK-OV-3 cells assessed as inhibition of cell growth incubated for 72 hrs by MTT assay; details: SK-OV-3, 72 h

IC50 [1]: 37.6 µM | IC50 [2]: 34.7 µM | IC50 [3]: 51.5 µM
Compound: CC(=O)O[C@H]1CC[C@@]2(C)C(=CC[C@@H]3[C@@H]2CC[C@]2(C)C(c4cccnc4)=CC[C@@H]32)C1 [ABIRATERONE ACETATE]
